How the values were obtained:
Format in all cases: biochemical
adenosine A2B receptor = adenosine A2B receptor (Homo sapiens (Human), UniProt P29275); experiment: Adenosine receptor activity assay (Table 1), A2B activity; conditions: for Ratio: A2A activity to A2B activity (A2A/A2B); for IC50: read-out: Ave A2B cAMP IC50
adenosine A2A receptor = adenosine A2A receptor (Homo sapiens (Human), UniProt P29274); experiment: Adenosine receptor activity assay (Table 1), A2A activity; conditions: read-out: Ave A2A cAMP IC50
adenosine A2A receptor, sequence (P29274 whole entry): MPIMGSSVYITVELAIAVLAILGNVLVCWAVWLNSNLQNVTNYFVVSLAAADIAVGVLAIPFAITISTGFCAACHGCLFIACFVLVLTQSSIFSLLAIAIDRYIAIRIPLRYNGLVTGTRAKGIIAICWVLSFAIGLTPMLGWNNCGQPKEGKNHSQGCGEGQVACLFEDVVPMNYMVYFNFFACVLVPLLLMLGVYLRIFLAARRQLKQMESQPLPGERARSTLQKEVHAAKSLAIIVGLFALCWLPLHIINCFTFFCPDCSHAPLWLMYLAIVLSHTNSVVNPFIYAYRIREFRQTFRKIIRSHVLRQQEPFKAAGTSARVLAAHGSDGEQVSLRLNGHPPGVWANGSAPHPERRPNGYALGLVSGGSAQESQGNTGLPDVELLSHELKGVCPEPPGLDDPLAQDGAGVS

adenosine A3 receptor = adenosine A3 receptor (Homo sapiens (Human), UniProt P0DMS8); experiment: A3 cAMP IC50 assay (Table 1)
adenosine A3 receptor, sequence (P0DMS8 whole entry): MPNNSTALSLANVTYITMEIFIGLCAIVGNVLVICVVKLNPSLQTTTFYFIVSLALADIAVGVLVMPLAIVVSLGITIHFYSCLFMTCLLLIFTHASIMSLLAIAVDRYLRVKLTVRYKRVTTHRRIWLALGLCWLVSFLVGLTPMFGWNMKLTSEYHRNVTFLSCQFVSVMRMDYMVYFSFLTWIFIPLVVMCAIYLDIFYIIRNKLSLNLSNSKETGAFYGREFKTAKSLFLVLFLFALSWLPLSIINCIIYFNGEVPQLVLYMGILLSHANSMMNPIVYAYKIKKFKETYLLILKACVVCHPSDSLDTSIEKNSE

adenosine A1 receptor = adenosine A1 receptor (Homo sapiens (Human), UniProt P30542); experiment: A1 cAMP IC50 assay (Table 1)
adenosine A1 receptor, sequence (P30542 whole entry): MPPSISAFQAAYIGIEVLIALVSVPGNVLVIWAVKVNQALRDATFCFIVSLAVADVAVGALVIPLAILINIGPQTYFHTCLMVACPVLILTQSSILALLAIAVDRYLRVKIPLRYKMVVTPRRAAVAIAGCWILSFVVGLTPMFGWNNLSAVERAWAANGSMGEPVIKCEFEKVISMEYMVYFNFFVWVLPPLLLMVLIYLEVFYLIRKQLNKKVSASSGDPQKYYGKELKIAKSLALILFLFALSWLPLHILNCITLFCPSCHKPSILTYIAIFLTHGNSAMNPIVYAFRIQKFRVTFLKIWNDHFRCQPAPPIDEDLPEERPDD

adenosine A2B receptor, sequence (P29275 whole entry): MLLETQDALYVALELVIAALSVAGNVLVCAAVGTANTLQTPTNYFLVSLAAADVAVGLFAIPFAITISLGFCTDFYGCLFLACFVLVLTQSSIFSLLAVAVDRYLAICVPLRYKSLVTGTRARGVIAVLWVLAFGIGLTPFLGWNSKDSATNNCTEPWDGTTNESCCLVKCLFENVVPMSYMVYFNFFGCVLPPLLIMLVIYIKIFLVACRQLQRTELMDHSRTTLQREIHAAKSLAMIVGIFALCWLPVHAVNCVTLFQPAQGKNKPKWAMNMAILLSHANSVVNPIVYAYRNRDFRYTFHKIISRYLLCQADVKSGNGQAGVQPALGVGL

| SMILES | Ratio (adenosine A2B receptor) | IC50 (adenosine A2B receptor) | IC50 (adenosine A2A receptor) | IC50 (adenosine A3 receptor) | IC50 (adenosine A1 receptor) |
| --- | --- | --- | --- | --- | --- |
| C[C@H](Nc1nc(C(=O)NCc2ccc(OCC3CC3)nc2)c2sccc2n1)c1ccccn1 [Example Z107, (S)—N-((6-(Cyclopropylmethoxy)pyridin-3-yl)methyl)-2-((1-(pyridin-2-yl)ethyl)amino)thieno[3,2-d]pyrimidine-4-carboxamide] | 0.84 | 50 to 100 nM | 50 to 100 nM | 100 to 500 nM | 100 to 500 nM |
| C[C@H](Nc1nc(C(=O)N[C@H]2CCN(C(=O)OC(C)(C)C)C2)c2sccc2n1)c1ccccn1 [Example Z143, tert-Butyl (S)-3-(2-(((S)-1-(pyridin-2-yl)ethyl)amino)thieno[3,2-d]pyrimidine-4-carboxamido)pyrrolidine-1-carboxylate] | 0.44 | 50 to 100 nM | 10 to 50 nM | 10 to 50 nM | > 500 nM |
| CNc1cc2nc(NCc3ccccn3)nc(C(=O)N3CCCC3)c2s1 [Example Z160, (6-(Methylamino)-2-((pyridin-2-ylmethyl)amino)thieno[3,2-d]pyrimidin-4-yl)(pyrrolidin-1-yl)methanone] | 22.65 | 10 to 50 nM | > 500 nM | 50 to 100 nM | > 500 nM |
| C[C@H](Nc1nc(C(=O)NC[C@@H](C)O)c2sccc2n1)c1ccccn1 [Example Z162, N—((R)-2-Hydroxypropyl)-2-(((S′)-1-(pyridin-2-yl)ethyl)amino)thieno[3,2-d]pyrimidine-4-carboxamide] | 5.97 | 10 to 50 nM | 100 to 500 nM | > 500 nM | > 500 nM |
| C[C@H](O)CNC(=O)c1nc(N[C@@H](C)c2ccccn2)nc2ccsc12 [Example Z163, N—((S)-2-Hydroxypropyl)-2-(((S)-1-(pyridin-2-yl)ethyl)amino)thieno[3,2-d]pyrimidine-4-carboxamide] | 4.38 | 50 to 100 nM | 100 to 500 nM | > 500 nM | > 500 nM |
| CC(C)(C)OC(=O)N[C@@H]1CCN(C(=O)c2nc(NCc3cc(F)cc(F)c3)nc3ccsc23)C1 [Example Z167, tert-Butyl (R)-(1-(2-((3,5-difluorobenzyl)amino)thieno[3,2-d]pyrimidine-4-carbonyl)pyrrolidin-3-yl)carbamate] | 16.55 | 10 to 50 nM | 100 to 500 nM | 50 to 100 nM | > 500 nM |
| CCOc1ccc(CNC(=O)c2nc(N[C@@H](C)c3ccccn3)nc3ccsc23)cn1 [Example Z170, (S)—N-((6-ethoxypyridin-3-yl)methyl)-2-((1-(pyridin-2-yl)ethyl)amino)thieno[3,2-d]pyrimidine-4-carboxamide] | 1.24 | 50 to 100 nM | 50 to 100 nM | 100 to 500 nM | 100 to 500 nM |
| CNc1cc2nc(N[C@@H](C)c3cccnc3)nc(C(=O)N3CC[C@@H](O)C3)c2s1 [Example Z172, ((R)-3-Hydroxypyrrolidin-1-yl)(6-(methylamino)-2-(((S)-1-(pyridin-3-yl)ethyl)amino)thieno[3,2-d]pyrimidin-4-yl)methanone] | 54.37 | 50 to 100 nM | > 500 nM | > 500 nM | > 500 nM |
| CNc1cc2nc(N[C@@H](C)c3ccccn3)nc(C(=O)N3CC[C@@H](O)C3)c2s1 [Example Z176, ((R)-3-Hydroxypyrrolidin-1-yl)(6-(methylamino)-2-(((S)-1-(pyridin-2-yl)ethyl)amino)thieno[3,2-d]pyrimidin-4-yl)methanone] | 27.44 | 10 to 50 nM | > 500 nM | 50 to 100 nM | > 500 nM |
| O=C(NC1CCC1)c1nc(NCc2cc(F)cc(F)c2)nc2ccsc12 [Example Z177, N-Cyclobutyl-2-((3,5-difluorobenzyl)amino)thieno[3,2-d]pyrimidine-4-carboxamide] | 7.01 | 10 to 50 nM | 50 to 100 nM | > 500 nM | 50 to 100 nM |
| C[C@H](Nc1nc(C(=O)NC2CCCC2)c2sccc2n1)c1ccccn1 [Example Z180, (S)—N-Cyclopentyl-2-((1-(pyridin-2-yl)ethyl)amino)thieno[3,2-d]pyrimidine-4-carboxamide] | 1.80 | 10 to 50 nM | 10 to 50 nM | 100 to 500 nM | 100 to 500 nM |
| O=C(NC1CC(O)C1)c1nc(NCc2cncc(F)c2)nc2ccsc12 (stereo not shown) [Example Z184, 2-(((5-Fluoropyridin-3-yl)methyl)amino)-N-((1r,3r)-3-hydroxycyclobutyl)thieno[3,2-d]pyrimidine-4-carboxamide] | 25.53 | 10 to 50 nM | > 500 nM | > 500 nM | > 500 nM |

Continued, values first:

| Ratio (adenosine A2B receptor) | IC50 (adenosine A2B receptor) | IC50 (adenosine A2A receptor) | IC50 (adenosine A3 receptor) | IC50 (adenosine A1 receptor) | SMILES |
| --- | --- | --- | --- | --- | --- |
| 57.59 | 10 to 50 nM | > 500 nM | > 500 nM | > 500 nM | O=C(c1nc(NCc2cncc(Cl)c2)nc2ccsc12)N1CCCC1 [Example Z93, (2-(((5-Chloropyridin-3-yl)methyl)amino)thieno[3,2-d]pyrimidin-4-yl)(pyrrolidin-1-yl)methanone] |
| 8.80 | 10 to 50 nM | 100 to 500 nM | > 500 nM | > 500 nM | O=C(c1nc(NCc2ccccn2)nc2ccsc12)N1CCCC1 [Example Z95, (2-((Pyridin-2-ylmethyl)amino)thieno[3,2-d]pyrimidin-4-yl)(pyrrolidin-1-yl)methanone] |
| 32.43 | < 10 nM | 50 to 100 nM | > 500 nM | > 500 nM | C[C@H](Nc1nc(C(=O)N2CCC2)c2sccc2n1)c1cccc(F)c1 [Example Z128, (S)-Azetidin-1-yl(2-((1-(3-fluorophenyl)ethyl)amino)thieno[3,2-d]pyrimidin-4-yl)methanone] |
| 20.13 | < 10 nM | 100 to 500 nM | > 500 nM | > 500 nM | C[C@H](Nc1nc(C(=O)N2CC[C@@H](O)C2)c2sccc2n1)c1cccc(F)c1 [Example Z132, (2-(((S)-1-(3-Fluorophenyl)ethyl)amino)thieno[3,2-d]pyrimidin-4-yl)((R)-3-hydroxypyrrolidin-1-yl)methanone] |
| 1.52 | 10 to 50 nM | 50 to 100 nM | 50 to 100 nM | > 500 nM | COCCNC(=O)c1nc(N[C@@H](C)c2ccccn2)nc2ccsc12 [Example Z144, (S)—N-(2-Methoxyethyl)-2-((1-(pyridin-2-yl)ethyl)amino)thieno[3,2-d]pyrimidine-4-carboxamide] |
| 46.65 | < 10 nM | 100 to 500 nM | 50 to 100 nM | > 500 nM | CNc1cc2nc(N[C@@H](C)c3cccnc3)nc(C(=O)N3CCC3)c2s1 [Example Z153, (S)-Azetidin-1-yl(6-(methylamino)-2-((1-(pyridin-3-yl)ethyl)amino)thieno[3,2-d]pyrimidin-4-yl)methanone] |
| – | < 10 nM | 10 to 50 nM | > 500 nM | 100 to 500 nM | C[C@H](Nc1nc(C(=O)N[C@H]2C[C@@H](O)C2)c2sccc2n1)c1ccccn1 [Example Z158, N-((1s,3R)-3-Hydroxycyclobutyl)-2-(((S)-1-(pyridin-2-yl)ethyl)amino)thieno[3,2-d]pyrimidine-4-carboxamide] |
| 5.18 | 10 to 50 nM | 100 to 500 nM | > 500 nM | > 500 nM | C[C@H](Nc1nc(C(=O)N[C@H]2C[C@H](O)C2)c2sccc2n1)c1ccccn1 [Example Z159, N-((1r,3S)-3-Hydroxycyclobutyl)-2-(((S)-1-(pyridin-2-yl)ethyl)amino)thieno[3,2-d]pyrimidine-4-carboxamide] |
| 29.83 | < 10 nM | 100 to 500 nM | 50 to 100 nM | > 500 nM | CNc1cc2nc(N[C@@H](C)c3cccnc3)nc(C(=O)N3CC[C@@H](F)C3)c2s1 [Example Z161, ((R)-3-Fluoropyrrolidin-1-yl)(6-(methylamino)-2-(((S)-1-(pyridin-3-yl)ethyl)amino)thieno[3,2-d]pyrimidin-4-yl)methanone] |
| 45.26 | < 10 nM | 100 to 500 nM | 50 to 100 nM | > 500 nM | CNc1cc2nc(N[C@@H](C)c3ccccn3)nc(C(=O)N3CCC3)c2s1 [Example Z173, (S)-Azetidin-1-yl(6-(methylamino)-2-((1-(pyridin-2-yl)ethyl)amino)thieno[3,2-d]pyrimidin-4-yl)methanone] |
| 22.59 | < 10 nM | 100 to 500 nM | 50 to 100 nM | > 500 nM | CNc1cc2nc(N[C@@H](C)c3ccccn3)nc(C(=O)N3CC[C@@H](F)C3)c2s1 [Example Z175, ((R)-3-fluoropyrrolidin-1-yl)(6-(methylamino)-2-(((S)-1-(pyridin-2-yl)ethyl)amino)thieno[3,2-d]pyrimidin-4-yl)methanone] |
| 48.67 | < 10 nM | 100 to 500 nM | 50 to 100 nM | > 500 nM | CNc1cc2nc(N[C@@H](C)c3cccnc3)nc(C(=O)N3CC[C@H](F)C3)c2s1 [Example Z187, ((S)-3-Fluoropyrrolidin-1-yl)(6-(methylamino)-2-(((S)-1-(pyridin-3-yl)ethyl)amino)thieno[3,2-d]pyrimidin-4-yl)methanone] |
| 36.15 | < 10 nM | 100 to 500 nM | 50 to 100 nM | > 500 nM | C[C@H](Nc1nc(C(=O)N2CCC2)c2sc(N)cc2n1)c1ccccn1 [Example Z189, (S)-(6-Amino-2-((1-(pyridin-2-yl)ethyl)amino)thieno[3,2-d]pyrimidin-4-yl)(azetidin-1-yl)methanone] |
